Reference: patent US20240270762A1, “PENICILLIN-BINDING PROTEIN INHIBITORS” (priority 2021, published 2024)

Target: T1, A. baumannii PBP1a (Acinetobacter baumannii, UniProt A0ABX6CK30)
T1 sequence (A0ABX6CK30 1-851): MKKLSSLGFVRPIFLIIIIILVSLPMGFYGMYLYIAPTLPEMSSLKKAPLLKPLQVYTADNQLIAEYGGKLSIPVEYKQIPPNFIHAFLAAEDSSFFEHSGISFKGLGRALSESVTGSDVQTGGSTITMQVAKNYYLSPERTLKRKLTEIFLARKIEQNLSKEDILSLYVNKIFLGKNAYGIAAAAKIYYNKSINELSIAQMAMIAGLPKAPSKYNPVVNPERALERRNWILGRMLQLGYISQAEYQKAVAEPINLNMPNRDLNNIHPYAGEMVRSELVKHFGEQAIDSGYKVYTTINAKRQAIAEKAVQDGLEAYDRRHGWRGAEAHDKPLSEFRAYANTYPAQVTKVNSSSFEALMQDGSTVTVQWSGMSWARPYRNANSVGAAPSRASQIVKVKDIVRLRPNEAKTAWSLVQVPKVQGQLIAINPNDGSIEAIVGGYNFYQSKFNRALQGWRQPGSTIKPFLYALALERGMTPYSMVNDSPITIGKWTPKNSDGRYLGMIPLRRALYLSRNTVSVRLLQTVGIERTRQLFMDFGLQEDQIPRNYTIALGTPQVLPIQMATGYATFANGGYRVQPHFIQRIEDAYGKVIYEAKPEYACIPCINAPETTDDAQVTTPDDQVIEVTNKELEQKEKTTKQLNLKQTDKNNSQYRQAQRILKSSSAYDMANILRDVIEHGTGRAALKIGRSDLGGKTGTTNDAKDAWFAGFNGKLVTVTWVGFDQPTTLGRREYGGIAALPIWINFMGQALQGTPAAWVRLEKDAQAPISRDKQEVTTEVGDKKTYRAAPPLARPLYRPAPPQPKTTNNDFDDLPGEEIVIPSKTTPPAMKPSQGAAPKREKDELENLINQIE
Test: Bocillin-FL competition binding via gel filtration, A. baumannii PBP1a
Conditions: not given
Procedure, shortened: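 Competitive equilibrium binding; reporter Bocillin-FL. PBP + inhibitor (titration) pre-incubated → Bocillin-FL, 15 min → gel filtration → fluorescence. EC50 from Hill fit of fraction bound vs [inhibitor].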

Row | Compound | EC50
1 | O=C(O)c1c(F)ccc2c1OB(O)[C@@H](NC(=O)[C@H](NC(=O)N1CCN(C3CCN(C(=O)c4cccnc4)CC3)C1=O)c1cc(F)c(O)c(O)c1Cl)C2 [Example 460, (R)-3-((R)-2-(2-chloro-5-fluoro-3,4-dihydroxyphenyl)-2-(3-(1-nicotinoylpiperidin-4-yl)-2-oxoimidazolidine-1-carboxamido)acetamido)-7-fluoro-2-hydroxy-3,4-dihydro-2H-benzo[e][1,2]oxaborinine-8-carboxylic acid] | 10 to 50 µM

Same assay, conditions: competition binding assay using Bocillin-FL via gel filtration; read-out: A. baumannii PBP1a Potency

Row | Compound | EC50
2 | O=C(O)c1c(F)ccc2c1OB(O)[C@@H](NC(=O)[C@H](NC(=O)N1CCN(C3CCN(C(=O)c4cc(O)c(F)c(O)c4F)CC3)C1=O)c1cc(F)c(O)c(O)c1Cl)C2 (single isomer, unassigned) [Example 444] | < 10 µM
3 | O=C(O)c1c(F)ccc2c1OB(O)[C@@H](NC(=O)[C@H](NC(=O)N1CCN(C3CCN(C(=O)Nc4cccc(O)c4F)CC3)C1=O)c1cc(F)c(O)c(O)c1Cl)C2 (single isomer, unassigned) [Example 446] | 10 to 50 µM
4 | O=C(O)c1c(F)ccc2c1OB(O)[C@@H](NC(=O)[C@H](NC(=O)N1CCN(C3CCN(C(=O)Nc4cc(O)ccc4Cl)CC3)C1=O)c1cc(F)c(O)c(O)c1Cl)C2 (single isomer, unassigned) [Example 448] | < 10 µM
5 | O=C(O)c1c(F)ccc2c1OB(O)[C@@H](NC(=O)[C@H](NC(=O)N1CCN(C3CCN(C(=O)Nc4ccc(F)c(O)c4)CC3)C1=O)c1cc(F)c(O)c(O)c1Cl)C2 (single isomer, unassigned) [Example 449] | < 10 µM
6 | O=C(O)c1c(F)ccc2c1OB(O)[C@@H](NC(=O)[C@H](NC(=O)N1CCN(C3CCN(C(=O)Nc4cc(O)cc(F)c4)CC3)C1=O)c1cc(F)c(O)c(O)c1Cl)C2 (single isomer, unassigned) [Example 450] | < 10 µM
7 | O=C(O)c1c(F)ccc2c1OB(O)[C@@H](NC(=O)[C@H](NC(=O)N1CCN(C3CCN(C(=O)Nc4cc(O)ccc4F)CC3)C1=O)c1cc(F)c(O)c(O)c1Cl)C2 (single isomer, unassigned) [Example 451] | < 10 µM
8 | O=C(O)c1c(F)ccc2c1OB(O)[C@@H](NC(=O)[C@H](NC(=O)N1CCN(C3CCN(C(=O)Nc4c(F)ccc(O)c4F)CC3)C1=O)c1cc(F)c(O)c(O)c1Cl)C2 (single isomer, unassigned) [Example 454] | < 10 µM
9 | O=C(O)c1c(F)ccc2c1OB(O)[C@@H](NC(=O)[C@H](NC(=O)N1CCN(C3CCN(C(=O)Nc4c(F)ccc(O)c4Cl)CC3)C1=O)c1cc(F)c(O)c(O)c1Cl)C2 (single isomer, unassigned) [Example 455] | < 10 µM
10 | O=C(O)c1c(F)ccc2c1OB(O)[C@@H](NC(=O)[C@@H](NC(=O)N1CCN(C3CCN(C(=O)c4ccc(O)cc4)CC3)C1=O)c1cc(F)c(O)c(O)c1Cl)C2 (single isomer, unassigned) [Example 462] | < 10 µM
11 | O=C(O)c1c(F)ccc2c1OB(O)[C@@H](NC(=O)[C@H](NC(=O)N1CCN(C3CCN(C(=O)c4ccc(O)cc4)CC3)C1=O)c1cc(F)c(O)c(O)c1Cl)C2 (single isomer, unassigned) [Example 463] | < 10 µM
12 | O=C(O)c1c(F)ccc2c1OB(O)[C@@H](NC(=O)[C@H](NC(=O)N1CCN(Cc3ccc(O)c(O)c3Cl)C(=O)C1=O)c1ccc(P(=O)(O)O)c(F)c1F)C2 [Example 166, (R)-3-((R)-2-(4-(2-chloro-3,4-dihydroxybenzyl)-2,3-dioxopiperazine-1-carboxamido)-2-(2,3-difluoro-4-phosphonophenyl)acetamido)-7-fluoro-2-hydroxy-3,4-dihydro-2H-benzo[e][1,2]oxaborinine-8-carboxylic acid] | 10 to 50 µM
13 | O=C(NCCS(=O)(=O)N1CCN(C(=O)N[C@H](C(=O)N[C@H]2Cc3ccc(F)c(C(=O)O)c3OB2O)c2ccc(P(=O)(O)O)cc2)C1=O)c1ccc(O)c(O)c1Cl [Example 167, (R)-3-((S)-2-(3-((2-(2-chloro-3,4-dihydroxybenzamido)ethyl)sulfonyl)-2-oxoimidazolidine-1-carboxamido)-2-(4-phosphonophenyl)acetamido)-7-fluoro-2-hydroxy-3,4-dihydro-2H-benzo[e][1,2]oxaborinine-8-carboxylic acid] | 50 to 250 µM
14 | O=C(O)c1c(F)ccc2c1OB(O)[C@@H](NC(=O)[C@H](NC(=O)N1CCN(C3CCN(C(=O)c4ccc(F)c(O)c4Cl)CC3)C1=O)c1cc(F)c(O)c(O)c1Cl)C2 [Example 438, (R)-3-((R)-2-(3-(1-(2-chloro-4-fluoro-3-hydroxybenzoyl)piperidin-4-yl)-2-oxoimidazolidine-1-carboxamido)-2-(2-chloro-5-fluoro-3,4-dihydroxyphenyl)acetamido)-7-fluoro-2-hydroxy-3,4-dihydro-2H-benzo[e][1,2]oxaborinine-8-carboxylic acid] | < 10 µM
15 | O=C(O)c1c(F)ccc2c1OB(O)[C@@H](NC(=O)[C@H](NC(=O)N1CCN(C3CCN(C(=O)Nc4cccc(O)c4)CC3)C1=O)c1cc(F)c(O)c(O)c1Cl)C2 [Example 445, (R)-3-((R)-2-(2-chloro-5-fluoro-3,4-dihydroxyphenyl)-2-(3-(1-((3-hydroxyphenyl)carbamoyl)piperidin-4-yl)-2-oxoimidazolidine-1-carboxamido)acetamido)-7-fluoro-2-hydroxy-3,4-dihydro-2H-benzo[e][1,2]oxaborinine-8-carboxylic acid] | < 10 µM
16 | O=C(O)c1c(F)ccc2c1OB(O)[C@@H](NC(=O)[C@H](NC(=O)N1CCN(C3CCN(C(=O)Nc4cccc(O)c4Cl)CC3)C1=O)c1cc(F)c(O)c(O)c1Cl)C2 [Example 447, (R)-3-((R)-2-(3-(1-((2-chloro-3-hydroxyphenyl)carbamoyl)piperidin-4-yl)-2-oxoimidazolidine-1-carboxamido)-2-(2-chloro-5-fluoro-3,4-dihydroxyphenyl)acetamido)-7-fluoro-2-hydroxy-3,4-dihydro-2H-benzo[e][1,2]oxaborinine-8-carboxylic acid] | < 10 µM
17 | O=C(O)c1c(F)ccc2c1OB(O)[C@@H](NC(=O)[C@H](NC(=O)N1CCN(C3CCN(C(=O)Nc4cc(O)cc(O)c4)CC3)C1=O)c1cc(F)c(O)c(O)c1Cl)C2 [Example 456, (R)-3-((R)-2-(2-chloro-5-fluoro-3,4-dihydroxyphenyl)-2-(3-(1-((3,5-dihydroxyphenyl)carbamoyl)piperidin-4-yl)-2-oxoimidazolidine-1-carboxamido)acetamido)-7-fluoro-2-hydroxy-3,4-dihydro-2H-benzo[e][1,2]oxaborinine-8-carboxylic acid] | < 10 µM
18 | O=C(O)c1c(F)ccc2c1OB(O)[C@@H](NC(=O)[C@H](NC(=O)N1CCN(C3CCN(C(=O)c4ccncc4)CC3)C1=O)c1cc(F)c(O)c(O)c1Cl)C2 [Example 461, (R)-3-((R)-2-(2-chloro-5-fluoro-3,4-dihydroxyphenyl)-2-(3-(1-isonicotinoylpiperidin-4-yl)-2-oxoimidazolidine-1-carboxamido)acetamido)-7-fluoro-2-hydroxy-3,4-dihydro-2H-benzo[e][1,2]oxaborinine-8-carboxylic acid] | 10 to 50 µM
19 | O=C(O)c1c(F)ccc2c1OB(O)[C@@H](NC(=O)C(NC(=O)N1CCN(C3CCN(S(=O)(=O)Cc4cccc(O)c4)CC3)C(=O)C1=O)c1cc(F)c(O)c(O)c1Cl)C2 (stereo partly drawn) [Example 485, (3R)-3-(2-(2-chloro-5-fluoro-3,4-dihydroxyphenyl)-2-(4-(1-((3-hydroxybenzyl)sulfonyl)piperidin-4-yl)-2,3-dioxopiperazine-1-carboxamido)acetamido)-7-fluoro-2-hydroxy-3,4-dihydro-2H-benzo[e][1,2]oxaborinine-8-carboxylic acid] | < 10 µM
20 | O=C(O)c1c(F)ccc2c1OB(O)[C@@H](NC(=O)C(NC(=O)N1CCN(C3CCN(C(=O)Nc4ccc(F)c(O)c4F)CC3)C(=O)C1=O)c1cc(F)c(O)c(O)c1Cl)C2 (stereo partly drawn) [Example 486, (3R)-3-(2-(2-chloro-5-fluoro-3,4-dihydroxyphenyl)-2-(4-(1-((2,4-difluoro-3-hydroxyphenyl)carbamoyl)piperidin-4-yl)-2,3-dioxopiperazine-1-carboxamido)acetamido)-7-fluoro-2-hydroxy-3,4-dihydro-2H-benzo[e][1,2]oxaborinine-8-carboxylic acid] | < 10 µM

Target: T2, PBP1a from Acinetobacter baumannii (ATCC 19606) (Acinetobacter baumannii, UniProt A0ABX6CK30)
T2 sequence (A0ABX6CK30 1-851): T1 sequence (A0ABX6CK30 1-851)
Test: Bocillin-FL fluorescence polarization competition binding, A. baumannii PBP1a
Conditions: fluorescence polarization competition binding assay using Bocillin-FL; read-out: A. baumannii PBP1a Potency
Procedure, shortened: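 Purified PBP was preincubated with inhibitor (E. coli PBP3 1.5 μM, 30 min; P. aeruginosa PBP3 0.75 μM, A. baumannii PBP3 0.2 μM and PBP1a 1 μM, 15 min), then Bocillin-FL (0.1 μM; 0.05 μM for PBP1a) added and FP read up to 60 min. EC50 = 50% loss of bound probe.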

Row | Compound | IC50
21 | O=C(O)c1c(F)ccc2c1OB(O)[C@@H](NC(=O)[C@H](NC(=O)N1CCN(C3CCN(C(=O)Nc4cc(O)ccc4Cl)CC3)C1=O)c1cc(F)c(O)c(O)c1Cl)C2 (single isomer, unassigned) [Example 448] | > 250 µM
22 | O=C(O)c1c(F)ccc2c1OB(O)[C@@H](NC(=O)[C@H](NC(=O)N1CCN(C3CCN(C(=O)Nc4ccc(F)c(O)c4)CC3)C1=O)c1cc(F)c(O)c(O)c1Cl)C2 (single isomer, unassigned) [Example 449] | > 250 µM
23 | O=C(O)c1c(F)ccc2c1OB(O)[C@@H](NC(=O)[C@H](NC(=O)N1CCN(C3CCN(C(=O)Nc4cc(O)cc(F)c4)CC3)C1=O)c1cc(F)c(O)c(O)c1Cl)C2 (single isomer, unassigned) [Example 450] | > 250 µM
24 | O=C(O)c1c(F)ccc2c1OB(O)[C@@H](NC(=O)[C@H](NC(=O)N1CCN(C3CCN(C(=O)Nc4c(F)ccc(O)c4F)CC3)C1=O)c1cc(F)c(O)c(O)c1Cl)C2 (single isomer, unassigned) [Example 454] | > 250 µM
